# Test results reported in patent publication US5962533A, “Hydroxy polyamines” (priority 1996, dated 1999).
# Structures can show the parent of a compound that is named as a salt. Where two headings read alike, the source gives them in different places.
# Experiments:
# [1] = system: L1210 cells; assay: L1210 growth inhibition, IC50 determinations; assay type: cell-based, Murine
# Procedure: IC50 Determinations. Cells were grown in 25 cm^2 tissue culture flasks in a total volume of 10 ml. Cultures were treated while in logarithmic growth (0.5-1.0×10^5 cells/ml) with the polyamine derivative diluted in sterile water and filtered through a 0.2 μm filter.
# After the indicated time periods, cells were removed from the incubator for counting. Cell number was determined by electronic particle counting (Model ZF coulter counter, Coulter Electronics, Hialeah, Fla.) and confirmed periodically with hemocytometer measurements.
# The percentage of control growth was determined as follows: [formula]
# [2] = system: L1210 cells; assay: Polyamine pool analysis in analogue-treated L1210 cells (HPLC); assay type: cell-based, Murine; conditions: for PUT level relative to untreated controls / SPD level relative to untreated controls / SPM level relative to untreated controls: L1210 cells, control = 100%
# Procedure: Polyamine Pool Analysis. While in logarithmic growth, cells were treated with the polyamine derivatives. […] Each supernatant was frozen at -20° C. until analysis by HPLC.
# [3] = 3.5 μm analogue, listed as (OH)2 DEHSPM
smiles,measurement,setting,value
"CCNCC[C@@H](O)CNCCCCNC[C@H](O)CCNCC [(HO)2 DEHSPM, N^1,N^14 -Diethyl-3(R),12(R)-dihydroxyhomospermine tetrahydrochloride]",IC50,"[1]; Mus musculus, L1210, 96 h, read-out: IC50 96 h, L1210 cells, 96 h",70 nM
same,IC50,"[1]; Mus musculus, read-out: IC50 48 h, L1210 cells, 48 h",600 nM
same,IC50,"[1]; read-out: IC50 96 h, L1210 cells, 96 h",50 to 90 nM
same,PUT level relative to untreated controls,[2]; 0.7 μm analogue,45%
same,SPD level relative to untreated controls,[2]; 0.7 μm analogue,57%
same,SPM level relative to untreated controls,[2]; 0.7 μm analogue,96%
same,PUT level relative to untreated controls,[2]; 3.5 μm analogue,below detectable limits
same,SPD level relative to untreated controls,[2]; 3.5 μm analogue,below detectable limits
same,SPM level relative to untreated controls,[2]; 3.5 μm analogue,60%
same,PUT level relative to untreated controls,[2]; [3],0%
same,SPD level relative to untreated controls,[2]; [3],0%
same,SPM level relative to untreated controls,[2]; [3],68%
same,N-deethylation by L1210 cells,[2]; in vitro conditions,do not N-deethylate
